Reference: patent publication US7696129B2, “Substituted aromatic amide derivative, intermediate thereof, agrohorticultural insecticide containing thereof and method for the use thereof” (Nihon Nohyaku Co., Ltd., priority 2001, dated 2010)

Tests used:
Type in all cases: in vivo
[1] = system: Common Cutworm (Spodoptera litura); assay: Test Example 2: insecticidal effect on common cutworm, cabbage leaf immersion; conditions: cabbage leaf immersed about 30 seconds, second-instar larvae, 25° C., eight days after the inoculation; for mortality at 50 ppm: Spodoptera litura, 192 h, read-out: Test Example 2 (insecticidal effect, mortality criterion); for Test Example 2 (insecticidal effect, mortality criterion): 50 ppm
Source text: Insecticidal Effect on Common Cutworm (Spodoptera litura)
A piece of cabbage leaf (cultivar; Shikidori) was immersed for about 30 seconds in a liquid chemical prepared by diluting a preparation containing each compound listed in Tables 4 to 9 as an active ingredient to adjust the concentration to 50 ppm. After air-dryness, it was placed in a plastic Petri dish with a diameter of 9 cm and inoculated with second-instar larvae of common cutworm, after which the dish was closed and then allowed to stand in a room thermostatted at 25° C. Eight days after the inoculation, the dead and alive were counted. The mortality was calculated according to the following equation and the insecticidal effect was judged according to the criterion shown in Test Example 1. The test was carried out with triplicate groups of 10 insects.

[2] = system: Diamond Back Moth (Plutella xylostella); assay: Test Example 1: insecticidal effect on diamond back moth, immersion of Chinese cabbage seedling with eggs; conditions: seedling with eggs immersed about 30 seconds, 25° C., six days after the immersion; for mortality at 50 ppm: Plutella xylostella, 144 h, read-out: Test Example 1 (insecticidal effect, mortality criterion); for Test Example 1 (insecticidal effect, mortality criterion): 50 ppm
Source text: Insecticidal Effect on Diamond Back Moth (Plutella xylostella)
Adult diamond back moths were released and allowed to oviposit on a Chinese cabbage seedling. Two days after the release, the seedling having the eggs deposited thereon was immersed for about 30 seconds in a liquid chemical prepared by diluting a preparation containing each compound listed in Tables 4 to 9 as an active ingredient to adjust the concentration to 50 ppm. After air-dryness, it was allowed to stand in a room thermostatted at 25° C. Six days after the immersion, the hatched insects were counted. The mortality was calculated according to the following equation and the insecticidal effect was judged according to the criterion shown below. The test was carried out with triplicate groups of 10 insects.

[3] = system: Smaller Tea Tortrix (Adxophyes sp.); assay: Test Example 3: insecticidal effect on smaller tea tortrix, tea leaf immersion; conditions: 50 ppm, tea leaves immersed about 30 seconds, larvae, 25° C., humidity 70%, eight days after the inoculation
Experimental: Insecticidal Effect on Smaller Tea Tortrix (Adxophyes sp.)
Tea leaves were immersed for about 30 seconds in a liquid chemical prepared by diluting a preparation containing each compound listed in Tables 1 to 3 as an active ingredient to adjust the concentration to 50 ppm. After air-dryness, the tea leaves were placed in a plastic Petri dish with a diameter of 9 cm and inoculated with larvae of smaller tea tortrix, after which the dish was allowed to stand in a room thermostatted at 25° C. and having a humidity of 70%. Eight days after the inoculation, the dead and alive were counted and the insecticidal effect was judged according to the criterion shown in Test Example 1. The test was carried out with triplicate groups of 10 insects.

Structure (SMILES)	mortality at 50 ppm [1]	mortality at 50 ppm [2]	Test Example 3 (insecticidal effect, mortality criterion) [3]	Test Example 2 (insecticidal effect, mortality criterion) [1]	Test Example 1 (insecticidal effect, mortality criterion) [2]
Cc1cc(C(C(F)(F)F)C(F)(F)F)ccc1NC(=O)c1cccc(I)c1C1=NC(C)(C)CO1 [Compound No. 10-1, 3-iodo-2-(4,4-dimethyloxazolin-2-yl)-2′-methyl-4′-[2,2,2-trifluoro-1-(trifluoromethyl)ethyl]benzanilide]	≤ 49%	100%	E (Mortality 49% or less)		
Cc1nc(C(C(F)(F)F)C(F)(F)F)ccc1NC(=O)c1cccc(I)c1C(=O)NC(C)(C)C[S+](C)[O-] (stereo not drawn) [8-12]			A (Mortality 100%)	A (Mortality 100%)	A (Mortality 100%)
CC(C)(CS(C)(=O)=O)NC(=O)c1c(I)cccc1C(=O)Nc1ccc(C(C(F)(F)F)C(F)(F)F)nc1Cl [8-6]			A (Mortality 100%)	D (Mortality 79-50%)	A (Mortality 100%)
C[S+]([O-])CC(C)(C)NC(=O)c1c(I)cccc1C(=O)Nc1ccc(C(C(F)(F)F)C(F)(F)F)cc1C(C)(C)C (stereo not drawn) [5-49]			E (Mortality 49% or less)	E (Mortality 49% or less)	A (Mortality 100%)
CSCC(C)(C)NC(=O)c1c(F)cccc1C(=O)Nc1ccc(C(C(F)(F)F)C(F)(F)F)cc1C [5-16]			A (Mortality 100%)	A (Mortality 100%)	A (Mortality 100%)
CSCC1(C)COC(c2c(I)cccc2C(=O)Nc2ccc(C(C(F)(F)F)C(F)(F)F)cc2C)=N1 (stereo not drawn) [10-2]			E (Mortality 49% or less)	E (Mortality 49% or less)	A (Mortality 100%)
CON=CC(C)(C)NC(=O)c1c(I)cccc1C(=O)Nc1ccc(C(C(F)(F)F)C(F)(F)F)cc1C [5-26]			A (Mortality 100%)	C (Mortality 89-80%)	A (Mortality 100%)
CSCC(C)(C)NC(=O)c1c(I)cccc1C(=O)Nc1ccc(C(C(F)(F)F)C(F)(F)F)nc1Cl [Compound No. 8-4, N^2-(1,1-dimethyl-2-methylthioethyl)-3-iodo-N^1-{2-chloro-6-[2,2,2-trifluoro-1-(trifluoromethyl)ethyl]pyridin-3-yl}phthalamide]	100%	100%	A (Mortality 100%)		
Cc1nc(C(C(F)(F)F)C(F)(F)F)ccc1NC(=O)c1cccc(I)c1C(=O)NC(C)(C)CS(C)(=O)=O [8-13]			A (Mortality 100%)	A (Mortality 100%)	A (Mortality 100%)
CON=CC(C)(C)NC(=O)c1ccccc1C(=O)Nc1ccc(C(C(F)(F)F)C(F)(F)F)cc1C [5-12]			A (Mortality 100%)	E (Mortality 49% or less)	A (Mortality 100%)
CSCC(C)(C)NC(=O)c1c(I)cccc1C(=O)Nc1ccc(C(C(F)(F)F)C(F)(F)F)nc1 [8-1]			E (Mortality 49% or less)	C (Mortality 89-80%)	A (Mortality 100%)
CCc1cc(C(C(F)(F)F)C(F)(F)F)ccc1NC(=O)c1cccc(I)c1C(=O)NC(C)C [5-46]			A (Mortality 100%)	A (Mortality 100%)	A (Mortality 100%)
CCN(CC)C(=O)c1c(I)cccc1C(=O)Nc1ccc(C(C(F)(F)F)C(F)(F)F)cc1C [6-1]			A (Mortality 100%)	A (Mortality 100%)	A (Mortality 100%)
CCNC(=O)OCC(C)NC(=O)c1c(I)cccc1C(=O)Nc1ccc(C(C(F)(F)F)C(F)(F)F)cc1C (stereo not drawn) [5-32]			A (Mortality 100%)	A (Mortality 100%)	A (Mortality 100%)
Cc1cc(C(C(F)(F)F)C(F)(F)F)ccc1NC(=O)c1cccc(C(F)(F)F)c1C(=O)NC(C)(C)CS(C)(=O)=O [5-43]			A (Mortality 100%)	A (Mortality 100%)	A (Mortality 100%)
CCOC(=O)C=CC(C)(C)NC(=O)c1c(I)cccc1C(=O)Nc1ccc(C(C(F)(F)F)C(F)(F)F)cc1C [5-25]			A (Mortality 100%)	A (Mortality 100%)	A (Mortality 100%)
CSCC(C)(C)NC(=O)c1c(I)cccc1C(=O)Nc1ccc(C(C(F)(F)F)C(F)(F)F)cc1Cl [5-52]			A (Mortality 100%)	A (Mortality 100%)	A (Mortality 100%)
Cc1nc(C(C(F)(F)F)C(F)(F)F)ccc1NC(=O)c1cccc([N+](=O)[O-])c1C(=O)NC(C)(C)C[S+](C)[O-] (stereo not drawn) [8-8]			E (Mortality 49% or less)	E (Mortality 49% or less)	A (Mortality 100%)
CSCC(C)(C)NC(=O)c1c(I)cccc1C(=O)N(C)c1ccc(C(C(F)(F)F)C(F)(F)F)cc1C [6-3]			A (Mortality 100%)	A (Mortality 100%)	A (Mortality 100%)
CSCC(C)(C)NC(=O)c1c(I)cccc1C(=O)Nc1ccc(C(C(F)(F)F)C(F)(F)F)cc1C#N [5-57]			A (Mortality 100%)	A (Mortality 100%)	A (Mortality 100%)
CC(C)(CS(C)(=O)=O)NC(=O)c1c(I)cccc1C(=O)Nc1ccc(C(C(F)(F)F)C(F)(F)F)cc1C#N [5-59]			A (Mortality 100%)	A (Mortality 100%)	A (Mortality 100%)
CSCC(C)(C)NC(=O)c1c(C(=O)Nc2ccc(C(C(F)(F)F)C(F)(F)F)cc2C)cccc1[N+](=O)[O-] [5-15]			A (Mortality 100%)	A (Mortality 100%)	A (Mortality 100%)
CSCC(C)(C)NC(=O)c1c(I)cccc1C(=O)Nc1ccc(CC(F)(F)C(F)(F)C(F)(F)F)cc1C [5-7]			A (Mortality 100%)	A (Mortality 100%)	A (Mortality 100%)
Cc1cc(C(C(F)(F)F)C(F)(F)F)ccc1NC(=O)c1cccc(I)c1C1=NC(C)(C[S+](C)[O-])CO1 (stereo not drawn) [10-3]			E (Mortality 49% or less)	E (Mortality 49% or less)	A (Mortality 100%)
